Tests used:
[1] = ex vivo biodistribution of [18F]15; assay type: in vivo, Sprague Dawley rats; conditions: rat, iv
Description: Ex vivo Studies of Biodistribution. For biodistribution studies the normal male Sprague Dawley rats were anesthetized with isoflurane/nitrous oxide (1-1.5% isoflurane) to install catheter into the tail vain for administration of radioactivity ([^18F]15, 22±3 MBq, iv). Total of 15 rats in deep anesthesia (isoflurane 4% and cervical dislocation) were sacrificed in a group of three at five different time points (5, 10, 20, 30, and 60 min) after injection of [^18F]15. Major organs including lung, heart, liver, spleen, kidney, muscle, midbrain, cortex, cerebellum and blood were harvested to determine radioactivity. The tissue samples were weighted, and the radioactivity was measured with the standard samples of [^18F]15 using Wizard2 2480, Perkin Elmer, Calif. Radioactivity of the tissue samples was determined as percent of the injected activity per gram of the tissue.

[2] = PET imaging of [18F]15, baseline; assay type: in vivo, Sprague Dawley rats
Description: PET Imaging of [^18F]15 in Rats. Altogether 24 normal male Sprague Dawley rats were used for the imaging studies comprising 15 baseline studies and 15 blocking studies. Rats were anaesthetized with isoflurane/nitrous oxide (1.0-1.5% isoflurane, with oxygen flow of 1-1.5 L/min), and catheter was installed into tail vein for the administration of [^18F]15. Dynamic volumetric PET data was acquired with a PET-CT scanner for 60 min (Triumph-II, Tri-Foil Imaging, Northridge, Calif.). The vital signals such as heart rate and respiration rate were monitored during scanning period. PET data acquisition was started immediately after administration of radioactivity with the dose range of 18-34 MBq depending on the size of the rat followed by CT imaging to obtain anatomical information and data for attenuation correction of PET data. PET data was processed by using maximum-likelihood expectation-maximization (MLEM) algorithm with 30 iterations to dynamic volumetric images, and corrected for uniformity, scatter, and attenuation. The CT data was processed by the modified Feldkamp algorithm using matrix volumes of 512×512×512 and pixel size of […]. Co-registration of CT and PET images and analysis of PET images were carried out using PMOD3.2 software (PMOD Technology, Zurich, Switzerland).

[2H]C([2H])([18F])Sc1cc(NC(=O)c2ccccn2)ccc1Cl [[^18F]15]
accumulation in brain ([1]; at 10 min): 0.41±0.18 % ID/g | accumulation in heart ([1]; at 20 min): 0.50±0.08 % ID/g | accumulation in liver ([1]; at 20 min): 1.33±0.12 % ID/g | accumulation in lungs ([1]; at 20 min): 0.58±0.17 % ID/g | accumulation in kidneys ([1]; at 30 min): 0.93±0.57 % ID/g | BBB crossing ([2]; PET, rat brain): crosses BBB | time of highest accumulation in the thalamus ([2]; after administration of the ligand): about 2 min | maximum average uptake in the thalamus ([2]; time interval of 1-10 min after administering): 1.77±0.26 % ID/cc

— patent US20220118117A1, “MODULATORS OF METABOTROPIC GLUTAMATE RECEPTOR 4” (The General Hospital Corporation, priority 2019, published 2022)
